Measured values as given in patent publication US20030228675A1, “ATM related kinase ATX, nucleic acids encoding same and methods of use” (priority 2002, published 2003).

What was measured:
p53 = experiment: Stress-induced p53 Ser-15 phosphorylation and p53 accumulation by immunoblotting; assay type: cell-based, human
Procedure: To prepare recombinant HA-tagged ATX and ATM proteins, HEK 293T cells were plated onto 60-mm dishes (9×10^5 cells per dish), and were transfected with 5 μg pcDNA3.1 (empty vector), HA-ATXWT, HA-ATXKI, or HA-ATMWT plasmid DNAS. Transfections were performed with the Fugene 6 transfection reagent (Roche), according to the manufacturer's instructions. For NMD assays (see Example 9, below), U2OS cells were seeded onto 100 mm dishes (1×10^6 cells per dish). After 20 h, cells were transfected with 1.5 μg of pmCMV-Gl test plasmid, either Norm or 39Ter (Ishigaki et al., 2001); 1.5 μg of phCMV-MUP reference plasmid (Ishigaki et al., Cell 106:607-617 (2001)); and 7 μg of empty plasmid (pcDNA 3.1), plasmids encoding HA-ATMWT, HA-ATMKI, HA-ATXWT or HA-ATXKI. For antisense transfection experiments, U2OS cells were seeded onto 60 mm dishes (1×10^5 cells per dish) in complete medium supplemented with penicillin/streptomycin. After 30 h, cells were either mock transfected or transfected with sense (S) or antisense (AS) phosphorothioate oligonucleotides (Genset Oligos, La Jolla, Calif.). The S oligonucleotide spans ATX nucleotides 210-229 (5′-[…]-3′), and the AS oligonucleotide is complementary to this sequence (5′-[…]-3′). The cells were transfected with oligonucleotides at final concentrations of 8 μg/ml, with Fugene 6:DNA ratio of 1.6:1. Forty-eight hours after transfection, dishes were exposed to IR, UV-B, or 5-FU, and then harvested for immunoblotting, cell-cycle distribution, or cell survival assays. To examine ATX protein levels in oligonucleotide-treated cells, whole cell extracts were resolved by SDS-PAGE and immunoblotted with α-ATX Ab-1. When oligonucleotide-transfected cells were used for NMD assays, U2OS cells were seeded in culture dishes as described above. The cells were transfected using the Fugene reagent, with 1.5 μg of pmCMV-Gl test plasmid, 0.7 μg of phCMV-MUP reference plasmid, and 24 μg of S or AS oligonucleotide.
A major mediator of stress-induced signaling in mammalian cells is the tumor suppressor protein, p53 (Ko and Prives, Genes and Development 10:1054-1072, (1996); Ryan et al., Curr. Opin. Cell Biol. 13:332-337 (2001)). ATX phosphorylates p53 on Ser-15 (FIG. 1C), a site implicated in the regulation of p53 stability and transcriptional activity (Dumaz and Meek, Curr. Opin. Cell Biol. 13:225-231 (1999); Zhang and Xiong, Science 292:1910-1915 (2001)). Therefore, the possibility that these two proteins are functionally linked during cellular stress responses was investigated. U2OS cells were transiently transfected with a HA-ATXWT or HA-ATXKI expression plasmid, together with a GFP-encoding plasmid to allow for FACS-based enrichment of the transfected cells. The GFP+ cells were then examined for IR-induced stabilization of p53, as well as for specific phosphorylation of this protein on Ser-15. […] In contrast, overexpression of ATXWT enhanced both of these responses in cells exposed to IR.
The recognition of UV light-induced DNA damage occurs primarily during S phase, when pyrimidine dimers and other bulky lesions interfere with replication fork progression (Friedberg, DNA Repair and Mutagenesis (Washington, D.C., ASM Press) (1995); Lindahl and Wood, Cell 103:1121-1131 (1999)).
In order to further define the potential linkage between DNA replicational stress and ATX, the response of AS-treated cells to 5-fluorouracil (5-FU), an S-phase specific cytotoxic agent was examined (Danenberg et al., Seminars in Oncology 26:621-631 (1999); Grem, Investigational New Drugs 18:299-313 (2000)).
Changes in phosphorylation at Ser-15 are typically accompanied by alterations in the expression of the p53 protein, which complicates the interpretation of results obtained by immunoblotting of whole cell extracts with phospho-Ser-15-specific antibodies. […]

[1] = tested on: NMD of the Ter-containing β-globin mRNA; experiment: NMD assay, β-globin Ter mRNA by RT-PCR; assay type: cell-based, human; conditions: U2OS, reduced endogenous ATX expression
Procedure: To prepare recombinant HA-tagged ATX and ATM proteins, HEK 293T cells were plated onto 60-mm dishes (9×10^5 cells per dish), and were transfected with 5 μg pcDNA3.1 (empty vector), HA-ATXWT, HA-ATXKI, or HA-ATMWT plasmid DNAS. Transfections were performed with the Fugene 6 transfection reagent (Roche), according to the manufacturer's instructions. For NMD assays (see Example 9, below), U2OS cells were seeded onto 100 mm dishes (1×10^6 cells per dish). After 20 h, cells were transfected with 1.5 μg of pmCMV-Gl test plasmid, either Norm or 39Ter (Ishigaki et al., 2001); 1.5 μg of phCMV-MUP reference plasmid (Ishigaki et al., Cell 106:607-617 (2001)); and 7 μg of empty plasmid (pcDNA 3.1), plasmids encoding HA-ATMWT, HA-ATMKI, HA-ATXWT or HA-ATXKI. For antisense transfection experiments, U2OS cells were seeded onto 60 mm dishes (1×10^5 cells per dish) in complete medium supplemented with penicillin/streptomycin. […]
Total or nuclear RNA was isolated using Trizol (Invitrogen) or the NE-PER kit (Pierce), respectively. The extent of NMD was determined by using RT-PCR to quantitate the levels of Globin and MUP mRNA as described previously (Ishigaki et al., Cell 83: 1-4 (2001)), except that 21 cycles of PCR were used when analyzing the effects of ATX-specific S and AS oligonucleotides.

5′-AGCAAGCTCCCTCCTGTCTC-3′ (all phosphorothioate, sugars by position and methylation of C not given here) [AS oligonucleotide, ATX antisense phosphorothioate oligonucleotide complementary to ATX nucleotides 210-229]
stoichiometric increase in Ser-15 phosphorylation (phospho-Ser-15 to total p53) triggered by UV (p53; U2OS pretreated with proteasome inhibitor LLnV, UV): effectively blocked
level of p53 induction by 5-FU (p53; U2OS, 5-FU exposure, versus S-treated cells): identical to that observed in their S-treated counterparts
phosphorylation and stabilization of p53 induced by IR exposure (p53; U2OS, IR): reduced both the phosphorylation and stabilization of p53
Ser-15 phosphorylation and p53 protein accumulation in UV-damaged cells (p53; U2OS, UV): severely impaired both Ser-15 phosphorylation and p53 protein accumulation
NMD activity [1]: ATX expression is required for maximal NMD activity
